“Also recorded” adds a separate entry of the source. Read-outs that look alike come from different tables or passages of the source.
Key:
XuaE = XuaE (Ruminiclostridium cellulolyticum, UniProt B8I0N8); test: Enzyme activity of XuaE on AXOS (HPAEC-PAD); assay type: biochemical; conditions: for Products released by XuaE: HPAEC-PAD; for Specific activity (IU) of XuaE: substrate 1 mM, 37 °C
Protocol: (§1) XuaD, E, F, G (0.01 to 1 µM) were tested with different AXOS and/or XOS at 1 mM with incubation times varying from 5 min to 24 h. Enzymes (10 nM) were incubated at 37 °C for 5 min, kinetic parameters of XuaD were determined with both A^2,3XX and A^2XX, with sugar concentration varying from 0.05 to 8 mM, and XuaE with A^2,3XX with sugar concentration varying from 0.05 to 1 mM (at least 9 concentration point). Substrates and released products were quantified by high performance anion exchange chromatography coupled with pulsed amperometric detection on an ICS-3000 using a PA1 column (Thermo Scientific). Sugars were eluted with the buffers 0.1 M NaOH and 0.5 M sodium acetate + 0.1 M NaOH as the eluants A and B, respectively, using the multistep procedure as follows: isochratic separation (5 min, 95% A + 5% B), separation gradient (8 min, 10–37% B), column wash (2 min, 99% B), and subsequent column equilibration (2.5 min, 95% A + 5% B).

XuaG = test: Enzyme activity of XuaG on AXOS and XOS (HPAEC-PAD); assay type: biochemical, Ruminiclostridium cellulolyticum; conditions: substrate 1 mM, 37 °C
Protocol: as §1

XuaA [1] = target: T1, XuaA (Ruminiclostridium cellulolyticum, UniProt B8I0N3); test: Isothermal titration calorimetry (ITC) of XuaA with ligands; assay type: binding; conditions: 25 °C, 25 mM phosphate buffer pH 7.0
T1 sequence (B8I0N3 entry or part of it): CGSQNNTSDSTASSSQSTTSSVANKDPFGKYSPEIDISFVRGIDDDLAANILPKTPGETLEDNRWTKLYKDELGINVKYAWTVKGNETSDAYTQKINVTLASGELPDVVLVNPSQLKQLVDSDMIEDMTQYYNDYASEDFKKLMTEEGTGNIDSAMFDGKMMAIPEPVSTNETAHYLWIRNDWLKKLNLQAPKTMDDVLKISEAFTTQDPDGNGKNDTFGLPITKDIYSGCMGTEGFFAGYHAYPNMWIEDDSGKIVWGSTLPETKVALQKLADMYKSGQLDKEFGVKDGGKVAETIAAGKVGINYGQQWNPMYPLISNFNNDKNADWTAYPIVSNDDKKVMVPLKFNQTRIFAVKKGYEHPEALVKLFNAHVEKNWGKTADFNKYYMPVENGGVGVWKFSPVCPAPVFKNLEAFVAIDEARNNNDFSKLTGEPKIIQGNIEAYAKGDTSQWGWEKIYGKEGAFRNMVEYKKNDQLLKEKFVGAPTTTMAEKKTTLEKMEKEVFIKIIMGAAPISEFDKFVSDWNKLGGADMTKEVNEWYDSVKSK
Protocol: (§2) XOS and AXOS were purchased from Megazyme: A^3X (ref O-A^3X), A^2XX (ref O-A^2XX), A^2,3XX (ref O-A^2,3XX), XA^3XX (ref O-XA^3XX), XA^2,3XX (ref O-XA^2,3XX), XAXXMIX (ref O-XAXXMIX), X2 to X6 (ref O-XBI, O-XTR, O-XTE, O-XPE, O-XHE, respectively) (Fig. 3) (Megazyme). For TSA experiments, monosaccharides, XOS and AXOS were tested at a final concentration of 1 mM or 0.1 mM (for X4, X5, and X6). Experiments were performed with XuaA (8 µM) in 25 mM phosphate buffer pH 7 and SYPRO orange (1/500) (Sigma-Aldrich). Melting curves were monitored from 10 to 90 °C with 0.5 °C increment every 30 s, on CFX96 touch real-time PCR detection system (Bio-Rad, France) and analyzed using the Bio-Rad CFX Maestro 1.1 software.
A MicroCal PEAQ-ITC (Malvern, Malvern, UK) was used to determine thermodynamic parameters of the binding at 25 °C in 25 mM phosphate buffer, pH 7.0. The ligands (50–2000 µM) were injected (one injection with 0.4 µL followed by 18 injections of 2 µL) in the cell containing XuaA (5–50 µM) in the same buffer. At least one duplicate was performed.

XuaA [2] = target: T1, XuaA; test: Thermal shift assay (TSA) of XuaA with carbohydrate ligands; assay type: binding; conditions: for Binding to XuaA (in words): screened by TSA, then ITC
Protocol: as §2

XuaD = XuaD (Ruminiclostridium cellulolyticum, UniProt B8I0N6); test: Enzyme activity of XuaD on AXOS (HPAEC-PAD); assay type: biochemical; conditions: for Products released by XuaD: HPAEC-PAD; for Specific activity (IU) of XuaD: substrate 1 mM, 37 °C
XuaD, sequence (B8I0N6 entry or part of it): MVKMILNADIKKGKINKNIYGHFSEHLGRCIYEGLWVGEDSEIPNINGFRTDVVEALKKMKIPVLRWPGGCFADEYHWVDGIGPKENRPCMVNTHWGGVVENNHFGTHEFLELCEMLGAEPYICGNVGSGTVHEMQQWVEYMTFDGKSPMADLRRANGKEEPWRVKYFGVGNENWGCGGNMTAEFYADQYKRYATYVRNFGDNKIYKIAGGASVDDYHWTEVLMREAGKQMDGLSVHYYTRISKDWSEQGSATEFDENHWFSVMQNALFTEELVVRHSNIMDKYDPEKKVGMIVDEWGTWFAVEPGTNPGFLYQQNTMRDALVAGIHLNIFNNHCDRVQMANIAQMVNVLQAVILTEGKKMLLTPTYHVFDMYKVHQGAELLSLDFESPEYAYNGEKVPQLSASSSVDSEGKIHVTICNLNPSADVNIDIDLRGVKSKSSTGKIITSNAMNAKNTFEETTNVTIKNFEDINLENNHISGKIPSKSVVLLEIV
Protocol: as §1

XuaF = test: Enzyme activity of XuaF on AXOS and XOS (HPAEC-PAD); assay type: biochemical, Ruminiclostridium cellulolyticum; conditions: substrate 1 mM, 37 °C
Protocol: as §1

[3] = substrate: CC(=O)Oc1cccc2ccccc12; test: Esterase activity of XuaH; assay type: biochemical, Ruminiclostridium cellulolyticum; conditions: other: 37 °C, pH 7, substrate 110 µM to 5.36 mM
Protocol: Esterase activity was tested using 1-Naphthyl acetate. Release of 1-Naphthol was monitored at 320 nm during 5 min at 37 °C in 25 mM phosphate buffer pH 7, with substrate final concentration ranging from 110 µM and 5.36 mM, and with XuaH (0.1 µM) or XuaJ (0.01 µM). Concentration of released 1-Naphthol during the first minute of the assay was determined based on 1-Naphthol standard curve.

[4] = substrate: OC[C@@H]1O[C@@H](O[C@@H]2[C@@H](O[C@@H]3O[C@@H](CO)[C@H](O)[C@H]3O)[C@H](O[C@@H]3CO[C@@H](O[C@@H]4COC(O)[C@H](O)[C@H]4O)[C@H](O)[C@H]3O)OC[C@H]2O)[C@H](O)[C@H]1O; test: Enzyme activity of XuaE on AXOS (HPAEC-PAD); assay type: biochemical, Ruminiclostridium cellulolyticum; conditions: other: 37 °C, substrate 0.05 to 1 mM
Protocol: as §1

[5] = XuaE versus XuaD on the same substrate
[6] = XuaA 8 µM, ligand 1 mM or 0.1 mM (X4, X5, X6), 25 mM phosphate buffer pH 7, mean of at least 2 experiments

| Molecule | Specific activity (IU) of XuaG (XuaG) | TSA ∆T (XuaA [2]; [6]) | Products released by XuaD (XuaD) | Specific activity (IU) of XuaD (XuaD) | Specific activity (IU) of XuaF (XuaF) | other results |
| --- | --- | --- | --- | --- | --- | --- |
| OC[C@@H]1O[C@@H](O[C@@H]2[C@@H](O[C@@H]3O[C@@H](CO)[C@H](O)[C@H]3O)[C@H](O[C@@H]3CO[C@@H](O[C@@H]4COC(O)[C@H](O)[C@H]4O)[C@H](O)[C@H]3O)OC[C@H]2O)[C@H](O)[C@H]1O (stereo partly shown) [A^2,3XX] | blocks the activity | 13.5 °C | Products: Ara, X3 | IU: 1256.3 ± 50.2 IU/µmol of enzyme |  | Products released by XuaE (XuaE): Products: Ara, A^2XX, A^3XX?; Km of XuaE relative to XuaD (fold lower) (XuaE; [5]): 18 fold; kcat of XuaE relative to XuaD (XuaE; [5]): twofold lower; Specific activity (IU) of XuaE (XuaE): IU: 1938.0 ± 109.6 IU/µmol of enzyme; ITC -T∆S (XuaA [1]): 15.1 ± 2.8 kcal/mol; ITC N (sites) (XuaA [1]): 0.796 ± 2.37e-2 sites; Kd (XuaA [1]): 12 ± 4.6 nM |
| OC[C@@H]1O[C@@H](O[C@H]2[C@H](O[C@@H]3CO[C@@H](O[C@@H]4COC(O)[C@H](O)[C@H]4O)[C@H](O)[C@H]3O)OC[C@@H](O)[C@@H]2O)[C@H](O)[C@H]1O (stereo partly shown) [A^2XX] | blocks the activity | 6.5 °C | Products: Ara, X3 | IU: 1263.0 ± 46.1 IU/µmol of enzyme | IU: 202.3 ± 18.7 IU/µmol of enzyme |  |
| OC[C@H]1OC(O)[C@H](O)[C@@H](O)[C@@H]1O (stereo partly shown) [G, glucose] |  |  |  |  |  | ΔTm at 1000 µM (XuaA [2]; pH 7, read-out: TSA ∆T): 0 °C; Binding to XuaA (in words) (XuaA [2]): does not bind |
| O=C[C@H](O)[C@@H](O)[C@H](O)CO [X, xylose] |  |  |  |  |  | ΔTm at 1000 µM (XuaA [2]; pH 7, ligand 1 mM, Additional file 1, read-out: TSA ∆T): 0 °C; Binding to XuaA (in words) (XuaA [2]): does not bind; also recorded: failed to bind |
| OC[C@@H]1O[C@@H](O[C@@H]2[C@@H](O[C@@H]3O[C@@H](CO)[C@H](O)[C@H]3O)[C@H](O[C@@H]3CO[C@@H](O[C@@H]4COC(O)[C@H](O)[C@H]4O)[C@H](O)[C@H]3O)OC[C@H]2O[C@@H]2OC[C@@H](O)[C@H](O)[C@H]2O)[C@H](O)[C@H]1O (stereo partly shown) [XA^2,3XX] | IU: 20.3 ± 0.2 IU/µmol of enzyme | 14 °C | Products: Ara, X4 | IU: 1.5 ± 0.03 IU/µmol of enzyme | IU: 29.7 ± 2.8 IU/µmol of enzyme | Products released by XuaE (XuaE): Products: Ara, XA^2XX, XA^3XX; Specific activity (IU) of XuaE (XuaE): IU: 1927.2 ± 100.4 IU/µmol of enzyme; ITC -T∆S (XuaA [1]): 4.8 ± 0.5 kcal/mol; ITC N (sites) (XuaA [1]): 1.05 ± 5.67e-2 sites; Kd (XuaA [1]): 15.9 ± 0.1 nM |
| OC[C@@H]1O[C@@H](O[C@@H]2[C@@H](O)[C@H](O[C@@H]3CO[C@@H](O[C@@H]4COC(O)[C@H](O)[C@H]4O)[C@H](O)[C@H]3O)OC[C@H]2O[C@@H]2OC[C@@H](O)[C@H](O)[C@H]2O)[C@H](O)[C@H]1O (stereo partly shown) [XA^3XX] | IU: 21.2 ± 0.2 IU/µmol of enzyme | 11.0 °C | Products: Ara, X4 | IU: 1218.9 ± 38.5 IU/µmol of enzyme | IU: 166.7 ± 12.8 IU/µmol of enzyme | Products released by XuaE (XuaE): Products: Ara, X4; ITC -T∆S (XuaA [1]): 11.6 ± 1.2 kcal/mol; ITC N (sites) (XuaA [1]): 0.652 ± 2.83e-3 sites; Kd (XuaA [1]): 40.4 ± 9.3 nM |
| XuaH (Ruminiclostridium cellulolyticum H10) (protein) MAIFQANFFAKTMKRSICFNALIPNDKYQAPDQEIKDEPKGPMKSIYLLHGYSGNHTDWLTWTKIQELSLKYNIAVFMPSGENFFYVDDEEVGAYYGELIGNELVDYTRSTFHLSDKREDTFIGGLSMGGYGAIRNGLKYSERFGRIIALSSALITNQIAGITPDFKGPVADYPYYRRVFGDLDRLLGGDKDPEALIRSLKEKNADIPKIYMACGTEDFLINENRELHEFLVSEKVEHTYIEDSGVHDWKFWNEYIDKGLAWATE |  |  |  |  |  | Km [3]: Km: 3.5 ± 1.1 mM; kcat [3]: kcat: 5435.7 ± 846.4 min^−1; kcat/Km [3]: kcat/Km: 1628.1 ± 295.7 min^−1 mM^−1 |
| XuaE (Ruminiclostridium cellulolyticum H10) (protein) MKIQNPIIWADMPDPDIIRVGDIYYMVSTTMFVMPGAPILKSKDLYHWELVSYVFNTIEDNDIYQLKNGKTAYGKGQWATSLRFFNGLYYACFVCHDMQKTYIYYTDDIEKSGWERYVINNVFHDMSFLFDNNRSYLIYGNGDIKIVELKDDLSGIKDGGVNQLLFSTPSENIMLRCEGCRAYKINGYYYLLFIEWPNDGNSRRRVVCYRSKDLLGEYDRKILLDDDMEYQNQGIAQGAIIDTPEGEWYSILFQDHGAVGRIPYLLPVSWEDDWPNLGVNEKVPESFEIPFEAYDTKPLIVSDSFNHNENKLDLRWQWNHNPEEDCWSFTEHPGYLRLRTQSLATDILTARNTLTQRTSGPQCAFSVELKTEGMKAGDYAGLVALQGNYGAIGIRADENNLKRIIVSKKGSDGRQIEEEYRLFADSRILIKIEFDFRNSSDIAKFYYSQDGIGWIKLGSDLHMTYTLDLFIGYRIGIFYYSQKAAGGFADFRNFSYESRQ |  |  |  |  |  | Km [4]: Km 0.1 ± 0.003 mM; kcat [4]: kcat 2253.5 ± 142.1 min^−1; kcat/Km [4]: kcat/Km 23137.8 ± 1355.0 min^−1 mM^−1 |

Further lines, with some results ahead:

| Specific activity (IU) of XuaG (XuaG) | TSA ∆T (XuaA [2]; [6]) | Products released by XuaD (XuaD) | Specific activity (IU) of XuaD (XuaD) | Specific activity (IU) of XuaF (XuaF) | Molecule | other results |
| --- | --- | --- | --- | --- | --- | --- |
|  | 0 °C |  |  | not active | OC1OC[C@@H](O[C@@H]2OC[C@@H](O)[C@H](O)[C@H]2O)[C@H](O)[C@H]1O (stereo partly shown) [X2, xylobiose] |  |
| IU: 24.5 ± 1.6 IU/µmol of enzyme | 0 °C |  |  | IU: 158.7 ± 21.1 IU/µmol of enzyme | OC1OC[C@@H](O[C@@H]2OC[C@@H](O[C@@H]3OC[C@@H](O)[C@H](O)[C@H]3O)[C@H](O)[C@H]2O)[C@H](O)[C@H]1O (stereo partly shown) [X3, xylotriose] |  |
| IU: 23.3 ± 0.5 IU/µmol of enzyme | 0 °C |  |  | IU: 87.2 ± 7.6 IU/µmol of enzyme | OC1OC[C@@H](O[C@@H]2OC[C@@H](O[C@@H]3OC[C@@H](O[C@@H]4OC[C@@H](O)[C@H](O)[C@H]4O)[C@H](O)[C@H]3O)[C@H](O)[C@H]2O)[C@H](O)[C@H]1O (stereo partly shown) [X4] |  |
| IU: 6.2 ± 0.5 IU/µmol of enzyme |  |  |  | IU: 25.3 ± 0.7 IU/µmol of enzyme | OC1OC[C@@H](O[C@@H]2OC[C@@H](O[C@@H]3OC[C@@H](O[C@@H]4OC[C@@H](O[C@@H]5OC[C@@H](O)[C@H](O)[C@H]5O)[C@H](O)[C@H]4O)[C@H](O)[C@H]3O)[C@H](O)[C@H]2O)[C@H](O)[C@H]1O (stereo partly shown) [X5] | ΔTm at 100 µM (XuaA [2]; pH 7, ligand 100 µM, Additional file 1, read-out: TSA ∆T): 0 °C |
|  | 0 °C |  |  |  | OC1OC[C@@H](O[C@@H]2OC[C@@H](O[C@@H]3OC[C@@H](O[C@@H]4OC[C@@H](O[C@@H]5OC[C@@H](O[C@@H]6OC[C@@H](O)[C@H](O)[C@H]6O)[C@H](O)[C@H]5O)[C@H](O)[C@H]4O)[C@H](O)[C@H]3O)[C@H](O)[C@H]2O)[C@H](O)[C@H]1O (stereo partly shown) [X6, Xylohexaose] | TSA ∆T (XuaA [2]; ligand 100 µM, Additional file 1): 0 °C |
